Reference: patent US7220741B2, “1,4-diazabicycloalkane derivatives, their preparation and use” (NeuroSearch A/S, priority 2002, dated 2007)
Where a name gives a salt, the structure may show the parent alone.

Test system: not given
Experiment: not given
Settings: not given

Structure (SMILES) | melting point
O=C(O)/C=C/C(=O)O.c1ccc2cc(-c3nnc(N4CCN5CCC4CC5)o3)ccc2c1 | 194.6 to 195.7 °C
O=C(O)/C=C/C(=O)O.c1coc(-c2nnc(N3CCN4CCC3CC4)o2)c1 | 175 °C
COc1ccc(-c2nnc(N3CCN4CCC3CC4)o2)cc1.O=C(O)/C=C/C(=O)O | 190.1 to 191.2 °C
O=C(O)/C=C/C(=O)O.c1cc(-c2nnc(N3CCN4CCC3CC4)o2)ccn1 | 165.9 to 166.8 °C
O=C(O)/C=C/C(=O)O.c1cncc(-c2nnc(N3CCN4CCC3CC4)o2)c1 | 176.8 to 177.5 °C
Clc1ccc(-c2nnc(N3CCN4CCC3CC4)o2)cc1.O=C(O)/C=C/C(=O)O | 184.3 to 185.8 °C
COc1cccc(-c2nnc(N3CCN4CCC3CC4)o2)c1.O=C(O)/C=C/C(=O)O | 126 to 164 °C
O=C(O)/C=C/C(=O)O.c1ccc(-c2ccc(-c3nnc(N4CCN5CCC4CC5)o3)cc2)cc1 | 238 to 239 °C
O=C(O)/C=C/C(=O)O.c1csc(-c2nnc(N3CCN4CCC3CC4)o2)c1 [Compound D5, 4-[5-(2-Thienyl)-1,3,4-oxadiazol-2-yl]-1,4-diazabicyclo[3.2.2]nonane fumaric acid salt] | 161.8 to 162.7 °C

Molecular target: T1, α7-subtype of nicotinic receptors (Rattus norvegicus, UniProt Q05941)
T1 construct: Cerebral cortices from male Wistar rats (150–250 g) are homogenised; from tissue; host or cells: rat cerebral cortex membrane homogenate (male Wistar rats)
T1 sequence (Q05941 23-502): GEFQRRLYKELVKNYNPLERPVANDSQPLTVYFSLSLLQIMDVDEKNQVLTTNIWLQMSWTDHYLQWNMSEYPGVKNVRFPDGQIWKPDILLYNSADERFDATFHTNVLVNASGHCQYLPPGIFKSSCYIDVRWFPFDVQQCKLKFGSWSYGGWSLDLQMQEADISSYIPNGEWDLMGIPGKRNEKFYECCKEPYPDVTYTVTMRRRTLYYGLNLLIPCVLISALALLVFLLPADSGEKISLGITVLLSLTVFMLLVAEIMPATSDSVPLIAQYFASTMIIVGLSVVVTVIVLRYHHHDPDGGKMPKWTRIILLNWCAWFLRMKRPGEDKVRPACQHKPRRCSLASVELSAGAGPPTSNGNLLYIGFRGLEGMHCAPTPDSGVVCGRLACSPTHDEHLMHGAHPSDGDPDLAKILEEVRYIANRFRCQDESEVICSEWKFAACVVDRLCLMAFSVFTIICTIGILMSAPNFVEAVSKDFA
Experiment: In vitro inhibition of 3H-α-bungarotoxine binding in rat brain
Settings: cerebral cortices from male Wistar rats, homogenate; 3H-α-bungarotoxine 2 nM; 2 hours at 37° C.

Structure (SMILES) | IC50
c1ccc(-c2nnc(N3CCN4CCC3CC4)s2)cc1 [Compound 1A, 4-(5-Phenyl-1,3,4-thiadiazol-2-yl)-1,4-diazabicyclo[3.2.2]nonane fumaric acid salt] | 6.7 nM
c1ccc(-c2nnc(N3CCN4CCC3CC4)o2)cc1 [Compound D1, 4-(5-Phenyl-1,3,4-oxadiazol-2-yl)-1,4-diazabicyclo[3.2.2]nonane fumaric acid salt] | 5.8 nM
O=C(O)/C=C/C(=O)O.c1csc(-c2nnc(N3CCN4CCC3CC4)o2)c1 [Compound D5, 4-[5-(2-Thienyl)-1,3,4-oxadiazol-2-yl]-1,4-diazabicyclo[3.2.2]nonane fumaric acid salt] | 22 nM
